{
  "source": "patent US7371407B2",
  "about": "“Use of Emu Oil and its various fractions as a carrier for antifungal, antibacterial, and antiviral medications and preparations” (Ganeden Biotech, Inc., priority 1999, dated 2008)",
  "key": {"[1]": {"test_system": "opportunistic bacterial pathogens", "assay": "In vitro bacterial pathogen screen (DIFCO BACTROL Disk Set) on potato-dextrose plates", "format": "cell-based", "conditions": "positive control, 18 hr at 30° C.", "excerpt": "The ability of Bacillus coagulans to inhibit various opportunistic bacterial pathogens was quantitatively ascertained by use of an in vitro assay. This assay is part of a standardized bacterial pathogen screen (developed by the U.S. Food and Drug Administration(FDA)) and is commercially available on solid support disks (DIFCO® BACTROL® Disk Set). To perform the assay, potato-dextrose plates (DIFCO®) were initially prepared using standard procedures. The plates were then individually inoculated with each of the bacteria (approximately 1.5×10^6 CFU) to be tested, so as to form a confluent bacterial bed.\nInhibition by Bacillus coagulans was subsequently ascertained by placing approximately 1.5×10^6 CFU of Bacillus coagulans in 10 μl of broth or buffer, directly in the center of the potato-dextrose plate, with one test locus being approximately 8 mm in diameter per plate. A minimum of three test loci were used for each assay. The negative control consisted of a 10 μl volume of a sterile saline solution, whereas the positive control consisted of a 10 μl volume of glutaraldehyde. The plates were then incubated for approximately about 18 hr at 30° C., at which time the zones of inhibition were measured. […]"}, "four species of Candida": {"test_system": "four species of Candida", "assay": "In vitro inhibition assay on potato-dextrose plates, yeast pathogens", "format": "cell-based", "conditions": "positive control, 18 hr at 30° C.", "method": "Each of the yeast pathogens and their ATCC accession numbers are illustrated in FIG. 5.\nIn the in vitro inhibition assay, potato-dextrose plates (DIFCO®, Detroit, Mich.) were prepared using standard procedures and were inoculated individually with a confluent bed about 1.7×10^6 of the four species of Candida. Inhibition by Bacillus coagulans was tested by placing on the plate about 1.5×10^6 colony forming units (CFU) in 10 μl of broth or buffer, plated directly in the center of the potato-dextrose plate with one test locus of about 8 mm in diameter per plate. A minimum of three tests were performed for each inhibition assay. The negative control consisted of a 10 μl volume of a sterile saline solution, whereas the positive control consisted of a 1 μl volume of Miconazole cream.\nThe plates were then incubated for approximately 18 hr at 30° C., at which time the zones of inhibition were measured. As designated herein, “excellent inhibition” means the zone was 10 mm or greater in diameter; and “good inhibition” means the zone was greater than 2 mm in diameter, but less than 10 mm in diameter."}, "Trichophyton species": {"test_system": "Trichophyton species", "assay": "In vitro inhibition assay on potato-dextrose plates, fungal pathogens", "format": "cell-based", "conditions": "positive control, 18 hr at 30° C.", "method": "In the assay, potato-dextrose plates (DIFCO®, Detroit, Mich.) were prepared using standard procedures and were inoculated individually with a confluent bed (about 1.7×10^6) of various species of the fungus Trichophyton. The tested fungal strains of Trichophyton species (available from the American Type Culture Collection (ATCC; Rockville, Md.)) and their ATCC accession numbers, as well as the results of in vitro inhibition by Bacillus coagulans are illustrated in FIG. 4.\nInhibition by Bacillus coagulans was ascertained by placing on the plate approximately 1.5×10^6 colony forming units (CFU) in 10 μl of broth or buffer, plated directly in the center of the potato-dextrose plate, with one test locus per plate. The size of each test locus was approximately 8 mm in diameter and a minimum of three tests were performed for each inhibition assay. The negative control consisted of a […] of sterile saline solution, whereas the positive control consisted of a […] 2% Miconazole (1-[2-(2,4-dichlorophenyl)-2-[(2,4-dichlorophenyl)methoxylmethyl-1,11-imidazole within an inert cream.\nThe plates were then incubated for approximately 18 hr at 30° C., at which time the zones of inhibition were measured. […]"}, "[2]": {"conditions": "topically-administered without dermal-penetrants; cited from earlier work"}},
  "data": [
    {"smiles": "O=CCCCC=O", "note": "[glutaraldehyde]", "values": [
      {"measurement": "zone of inhibition, diameter", "setting": "[1]; 10 μl, average of three tests", "value": "approximately 16.2 mm"},
      {"measurement": "inhibition class", "setting": "[1]", "value": "excellent (“excellent inhibition” means the zone was 10 mm or greater in diameter)"}
    ]},
    {"smiles": "Clc1ccc(COC(Cn2ccnc2)c2ccc(Cl)cc2Cl)c(Cl)c1", "note": "(stereo not shown) [Miconazole]", "values": [
      {"measurement": "zone of inhibition, diameter", "setting": "four species of Candida; cream, average of three tests", "value": "approximately 8.7 mm"},
      {"measurement": "inhibition class", "setting": "four species of Candida", "value": "good (“good inhibition” means the zone was greater than 2 mm in diameter, but less than 10 mm in diameter)"},
      {"measurement": "zone of inhibition, diameter", "setting": "Trichophyton species; 2% in inert cream, mean average of three tests", "value": "approximately 8.5 mm"},
      {"measurement": "inhibition class", "setting": "Trichophyton species", "value": "good (“good inhibition” means the zone was greater than 2 mm in diameter, but less than 10 mm in diameter)"}
    ]},
    {"smiles": "CC(C(=O)O)c1cccc(C(=O)c2ccccc2)c1", "note": "(stereo not shown) [Ketoprofen]", "values": [
      {"measurement": "adsorption through viable, keritinized dermal tissue", "setting": "[2]", "value": "very limited concentration, if at all"}
    ]}
  ]
}
